In patent US11548901B2, “Substituted 1,4-methanopyrido[1′,2′:4,5]pyrazino[1,2-a]pyrimidines for treating viral infections” (Gilead Sciences, Inc., priority 2012, dated 2023):

Test system: HIV-IIIb
Assay: Antiviral assay in MT4 cells
Assay type: cell-based
Conditions: Human immunodeficiency virus 1, IIIB, MT4, 120 h, read-out: EC50 nM in MT-4
Procedure: For the antiviral assay utilizing MT4 cells, 0.4 μL of […] test concentration of 3-fold serially diluted compound in DMSO was added to 40 μL of cell growth medium (RPMI 1640, 10% FBS, 1% penicilline/Streptomycine, 1% L-Glutamine, 1% HEPES) in each well of 384-well assay plates (10 concentrations) in quidruplicate.
1 mL aliquots of 2×10^6 MT4 cells are pre-infected for 1 and 3 hours respectively at 37° C. with 25 μL (MT4) or of either cell growth medium (mock-infected) or a fresh 1:250 dilution of an HIV-IIIb concentrated ABI stock (0.004 m.o.i. for MT4 cells). Infected and uninfected cells are diluted in cell growth medium and 35 μL of 2000 (for MT4) cells is added to each well of the assay plates.
Assay plates were then incubated in a 37° C. incubator. […] Cell lysis was carried out by incubating at room temperature for 2-3 minutes, and then chemiluminescence was read using the Envision reader (PerkinElmer).

SMILES: CC1CC2CC1OC1Cn3cc(C(=O)NCc4ccc(F)cc4F)c(=O)c(O)c3C(=O)N21 (single isomer, unassigned) [Compound 40]
- EC50: 2.4 nM
